Data published in US11840528B2 (Hoffmann-La Roche Inc., priority 2018, dated 2023).

What was measured:
h-GABA-A α5β3γ2 [1] = biological target: T1, h-GABA-A α5β3γ2 (Homo sapiens, UniProt P18507+P31644); experiment: [3H]flumazenil competition binding assay, membranes of HEK293 cells expressing GABAA receptors; conditions: displacement of [3H]-Flumazenil 0.5 nM, HEK293 cells expressing human receptors, mean of two determinations; Table 1
Outline: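 Receptor source: human α5β3γ2 transiently transfected into HEK293 cells, membranes in pH 7.5 Krebs-tris. Filtration through GF/C, then scintillation counting.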

h-GABA-A α5β3γ2 [2] = biological target: T1, h-GABA-A α5β3γ2; experiment: Two-electrode voltage clamp electrophysiology in Xenopus laevis oocytes expressing GABAA receptors, modulation of GABA EC20 current; format: cell-based; design: host or cells: Xenopus laevis oocytes micro-injected with RNA transcripts of the subunits; conditions: Table 1; for Efficacy (GABA) %: % modulation of GABA EC20 = 100*(Fold increase-1); for Fold increase h-GABA-A α5β3γ2 oocyte: test compound at approx. 30 fold its Ki, GABA at EC20
Outline: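 Modulation is reported as % of the GABA EC20 current, calculated as 100*(Fold increase−1) from the peak ratio between a second GABA response carrying compound (applied at roughly 30-fold Ki) and a preceding control response. Oocytes expressing human α5β3γ2 were clamped at −80 mV at room temperature, 3–5 days after injection.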

| Compound | Ki (h-GABA-A α5β3γ2 [1]) [nM] | Efficacy (GABA) % (h-GABA-A α5β3γ2 [2]) [%] | Fold increase h-GABA-A α5β3γ2 oocyte (h-GABA-A α5β3γ2 [2]) |
| --- | --- | --- | --- |
| CCOC1CN(c2cnn(Cc3c(-c4ccc(Cl)nc4)noc3C)c(=O)c2)C1 [Example 220, 2-((3-(6-chloropyridin-3-yl)-5-methyl-1,2-oxazol-4-yl)methyl)-5-(3-ethoxyazetidin-1-yl)pyridazin-3-one] | 25.3 | 118 | 2.18 |
| CCn1cc(-c2cnn(Cc3c(-c4ccc(Cl)nc4)noc3C)c(=O)c2)cn1 [Example 221, 2-((3-(6-chloropyridin-3-yl)-5-methylisoxazol-4-yl)methyl)-5-(1-ethyl-1H-pyrazol-4-yl)pyridazin-3(2H)-one] | 31.2 | 99 | 1.99 |
| Cc1onc(-c2ccc(Cl)nc2)c1Cn1ncc(-c2cnn(C3CC3)c2)cc1=O [Example 222, 2-((3-(6-chloropyridin-3-yl)-5-methylisoxazol-4-yl)methyl)-5-(1-cyclopropyl-1H-pyrazol-4-yl)pyridazin-3(2H)-one] | 31.2 | 82 | 1.82 |
| Cc1onc(-c2ccc(Cl)nc2)c1Cn1ncc(N2CCN3C(=O)CCC3C2)cc1=O (stereo not drawn) [Example 223, 2-(1-((3-(6-chloropyridin-3-yl)-5-methylisoxazol-4-yl)methyl)-6-oxo-1,6-dihydropyridazin-4-yl)hexahydropyrrolo[1,2-a]pyrazin-6(2H)-one] | 27.6 | 215 | 3.15 |
| Cc1onc(-c2ccc(Cl)nc2)c1Cn1ncc(N2CC(OC3CC3)C2)cc1=O [Example 224, 2-((3-(6-chloropyridin-3-yl)-5-methylisoxazol-4-yl)methyl)-5-(3-cyclopropoxyazetidin-1-yl)pyridazin-3(2H)-one] | 12.8 | 124 | 2.24 |
| Cc1ccc(-c2noc(C)c2Cn2ncc(N3CCC4(CCOCC4)CC3)cc2=O)cn1 [Example 226, 2-((5-methyl-3-(6-methylpyridin-3-yl)isoxazol-4-yl)methyl)-5-(3-oxa-9-azaspiro[5.5]undecan-9-yl)pyridazin-3(2H)-one] | 13 | 95 | 1.95 |
| Cc1onc(-c2ccc(Cl)nc2)c1Cn1ncc(N2CCO[C@@H](C)C2)cc1=O [Example 227, (S)-2-((3-(6-chloropyridin-3-yl)-5-methylisoxazol-4-yl)methyl)-5-(2-methylmorpholino)pyridazin-3(2H)-one] | 4.4 | 149 | 2.49 |
| COc1cc(-c2cnn(Cc3c(-c4ncc(C(F)(F)F)cn4)noc3C)c(=O)c2)ccn1 [Example 228, 5-(2-methoxypyridin-4-yl)-2-((5-methyl-3-(5-(trifluoromethyl)pyrimidin-2-yl)isoxazol-4-yl)methyl)pyridazin-3(2H)-one] | 3.8 | 41 | 1.41 |
| COC1CN(c2cnn(Cc3c(-c4ncc(C(F)(F)F)cn4)noc3C)c(=O)c2)C1 [Example 229, 5-(3-methoxyazetidin-1-yl)-2-((5-methyl-3-(5-(trifluoromethyl)pyrimidin-2-yl)isoxazol-4-yl)methyl)pyridazin-3(2H)-one] | 10 | 81 | 1.81 |
| Cc1onc(-c2ccc(Cl)nc2)c1Cn1ncc(N2CC3(C[C@@H](F)CO3)C2)cc1=O [Example 230, (R)-2-((3-(6-chloropyridin-3-yl)-5-methylisoxazol-4-yl)methyl)-5-(7-fluoro-5-oxa-2-azaspiro[3.4]octan-2-yl)pyridazin-3(2H)-one] | 45.1 | 127 | 2.27 |
| Cc1onc(-c2ccc(Cl)nc2)c1Cn1ncc(N2CC3(C[C@H](F)CO3)C2)cc1=O [Example 232, (S)-2-((3-(6-chloropyridin-3-yl)-5-methylisoxazol-4-yl)methyl)-5-(7-fluoro-5-oxa-2-azaspiro[3.4]octan-2-yl)pyridazin-3(2H)-one] | 37 | 104 | 2.04 |
| Cc1onc(-c2ccc(Cl)nc2)c1Cn1ncc(N2CC3(CCCCO3)C2)cc1=O [Example 233, 2-((3-(6-chloropyridin-3-yl)-5-methylisoxazol-4-yl)methyl)-5-(5-oxa-2-azaspiro[3.5]nonan-2-yl)pyridazin-3(2H)-one] | 33.6 | 82 | 1.82 |
| Cc1ccc(-c2noc(C)c2Cn2ncc(N3CC(OC(C)(C)C)C3)cc2=O)nn1 [Example 234, 5-(3-(tert-butoxy)azetidin-1-yl)-2-((5-methyl-3-(6-methylpyridazin-3-yl)isoxazol-4-yl)methyl)pyridazin-3(2H)-one] | 4.4 | 93 | 1.93 |
| Cc1ccc(-c2noc(C)c2Cn2ncc(N3CC4(CCCCO4)C3)cc2=O)nn1 [Example 235, 2-((5-methyl-3-(6-methylpyridazin-3-yl)isoxazol-4-yl)methyl)-5-(5-oxa-2-azaspiro[3.5]nonan-2-yl)pyridazin-3(2H)-one] | 2.8 | 77 | 1.77 |
| Cc1ccc(-c2noc(C)c2Cn2ncc(N3CC(Oc4ccnc(Cl)c4)C3)cc2=O)nn1 [Example 236, 5-[3-[(2-chloro-4-pyridyl)oxy]azetidin-1-yl]-2-[[5-methyl-3-(6-methylpyridazin-3-yl)isoxazol-4-yl]methyl]pyridazin-3-one] | 2.9 | 136 | 2.36 |
| CO[C@H]1COC2(C1)CN(c1cnn(Cc3c(-c4ccc(C(F)(F)F)nc4)noc3C)c(=O)c1)C2 [Example 237, 5-[(7R)-7-methoxy-5-oxa-2-azaspiro[3.4]octan-2-yl]-2-[[5-methyl-3-[6-(trifluoromethyl)-3-pyridyl]isoxazol-4-yl]methyl]pyridazin-3-one] | 5.8 | 147 | 2.47 |
| Cc1ccc(-c2noc(C)c2Cn2ncc(N3CC(OC4CCC4)C3)cc2=O)nn1 [Example 238, 5-[3-(cyclobutoxy)azetidin-1-yl]-2-[[5-methyl-3-(6-methylpyridazin-3-yl)isoxazol-4-yl]methyl]pyridazin-3-one] | 6.8 | 128 | 2.28 |
| Cc1ccc(-c2noc(C)c2Cn2ncc(N3CC(OC4CC4)C3)cc2=O)nn1 [Example 239, 5-[3-(cyclopropoxy)azetidin-1-yl]-2-[[5-methyl-3-(6-methylpyridazin-3-yl)isoxazol-4-yl]methyl]pyridazin-3-one] | 1 | 67 | 1.67 |
| Cc1ccc(-c2noc(C)c2Cn2ncc(N3CC4(C[C@@H](OC(F)F)CO4)C3)cc2=O)nn1 [Example 242, 5-[(7R)-7-(difluoromethoxy)-5-oxa-2-azaspiro[3.4]octan-2-yl]-2-[[5-methyl-3-(6-methylpyridazin-3-yl)isoxazol-4-yl]methyl]pyridazin-3-one] | 3 | 80 | 1.8 |
| Cc1ccc(-c2noc(CF)c2Cn2ncc(N3C[C@@H](C)O[C@@H](C)C3)cc2=O)cn1 [Example 243, 5-((2S,6R)-2,6-dimethylmorpholin-4-yl)-2-((5-(fluoromethyl)-3-(6-methylpyridin-3-yl)-1,2-oxazol-4-yl)methyl)pyridazin-3-one] | 4.6 | 173 | 2.73 |
| Cc1onc(-c2ccc(C(F)(F)F)nc2)c1Cn1ncc(N2CC(OCC(F)F)C2)cc1=O [Example 244, 5-[3-(2,2-difluoroethoxy)azetidin-1-yl]-2-[[5-methyl-3-[6-(trifluoromethyl)-3-pyridyl]isoxazol-4-yl]methyl]pyridazin-3-one] | 38.8 | 140 | 2.4 |
| Cc1onc(-c2ccc(Cl)nc2)c1Cn1ncc(N2CC(OCC(F)F)C2)cc1=O [Example 245, 2-((3-(6-chloropyridin-3-yl)-5-methylisoxazol-4-yl)methyl)-5-(3-(2,2-difluoroethoxy)azetidin-1-yl)pyridazin-3(2H)-one] | 18.7 | 106 | 2.06 |
| Cc1ccc(-c2noc(C)c2Cn2ncc(N3CC4(C[C@H](OC(F)F)CO4)C3)cc2=O)nn1 [Example 246, 5-[(7S)-7-(difluoromethoxy)-5-oxa-2-azaspiro[3.4]octan-2-yl]-2-[[5-methyl-3-(6-methylpyridazin-3-yl)isoxazol-4-yl]methyl]pyridazin-3-one] | 3.4 | 130 | 2.3 |
| Cc1ccc(-c2noc(C)c2Cn2ncc(N3CCC4(CCOCC4)CC3)cc2=O)nn1 [Example 247, 2-[[5-methyl-3-(6-methylpyridazin-3-yl)isoxazol-4-yl]methyl]-5-(3-oxa-9-azaspiro[5.5]undecan-9-yl)pyridazin-3-one] | 2.8 | 94 | 1.94 |
